Paper doi:10.1101/2021.09.30.462449v1 (biorxiv, 2021)

Experiments:
Experiment in all cases: biochemical
Conditions in all cases: read-out: % inhibition mean (Lanthascreen)
MAP4K1 (HPK1) = MAP4K1 (HPK1) (Homo sapiens, UniProt Q92918)
TNIK = TNIK (Homo sapiens, UniProt Q9UKE5)
MYLK4 = MYLK4 (Homo sapiens, UniProt Q86YV6)
SIK1 = SIK1 (Homo sapiens, UniProt P57059)
RIPK2 = RIPK2 (Homo sapiens, UniProt O43353)
KIT D816V = KIT D816V (Homo sapiens, UniProt P10721, D816V)
NLK = NLK (Homo sapiens, UniProt Q9UBE8)
Sequence of NLK (Q9UBE8 whole entry): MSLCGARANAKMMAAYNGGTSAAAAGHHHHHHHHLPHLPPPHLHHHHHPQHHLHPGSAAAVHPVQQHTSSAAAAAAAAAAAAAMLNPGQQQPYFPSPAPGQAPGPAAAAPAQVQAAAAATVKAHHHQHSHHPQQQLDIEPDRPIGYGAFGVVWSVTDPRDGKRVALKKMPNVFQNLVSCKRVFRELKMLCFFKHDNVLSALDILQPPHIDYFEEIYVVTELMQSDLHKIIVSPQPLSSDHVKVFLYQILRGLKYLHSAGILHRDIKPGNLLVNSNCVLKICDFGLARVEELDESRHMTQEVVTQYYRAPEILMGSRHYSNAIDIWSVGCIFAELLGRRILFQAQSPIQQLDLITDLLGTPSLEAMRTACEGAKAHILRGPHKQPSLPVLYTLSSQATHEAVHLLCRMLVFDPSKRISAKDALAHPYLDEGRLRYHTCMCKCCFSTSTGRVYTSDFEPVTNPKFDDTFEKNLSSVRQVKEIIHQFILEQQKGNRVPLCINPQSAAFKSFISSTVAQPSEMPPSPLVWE

STK17B (DRAK2) = STK17B (DRAK2) (Homo sapiens, UniProt O94768)
Sequence of STK17B (DRAK2) (O94768 whole entry): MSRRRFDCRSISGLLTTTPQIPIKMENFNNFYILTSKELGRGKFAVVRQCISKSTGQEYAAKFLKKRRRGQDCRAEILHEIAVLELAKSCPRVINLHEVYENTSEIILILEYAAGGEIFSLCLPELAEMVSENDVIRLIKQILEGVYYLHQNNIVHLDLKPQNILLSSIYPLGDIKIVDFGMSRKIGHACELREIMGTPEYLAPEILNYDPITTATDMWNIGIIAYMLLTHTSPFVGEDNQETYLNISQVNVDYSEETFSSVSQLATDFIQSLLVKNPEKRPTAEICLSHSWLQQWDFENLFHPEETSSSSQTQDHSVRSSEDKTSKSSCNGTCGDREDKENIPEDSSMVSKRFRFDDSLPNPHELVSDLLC

TAOK3 (JIK) = TAOK3 (JIK) (Homo sapiens, UniProt Q9H2K8)
AXL R499C = AXL R499C (Homo sapiens, UniProt P30530, R499C)
Sequence of AXL R499C (P30530 whole entry R499C): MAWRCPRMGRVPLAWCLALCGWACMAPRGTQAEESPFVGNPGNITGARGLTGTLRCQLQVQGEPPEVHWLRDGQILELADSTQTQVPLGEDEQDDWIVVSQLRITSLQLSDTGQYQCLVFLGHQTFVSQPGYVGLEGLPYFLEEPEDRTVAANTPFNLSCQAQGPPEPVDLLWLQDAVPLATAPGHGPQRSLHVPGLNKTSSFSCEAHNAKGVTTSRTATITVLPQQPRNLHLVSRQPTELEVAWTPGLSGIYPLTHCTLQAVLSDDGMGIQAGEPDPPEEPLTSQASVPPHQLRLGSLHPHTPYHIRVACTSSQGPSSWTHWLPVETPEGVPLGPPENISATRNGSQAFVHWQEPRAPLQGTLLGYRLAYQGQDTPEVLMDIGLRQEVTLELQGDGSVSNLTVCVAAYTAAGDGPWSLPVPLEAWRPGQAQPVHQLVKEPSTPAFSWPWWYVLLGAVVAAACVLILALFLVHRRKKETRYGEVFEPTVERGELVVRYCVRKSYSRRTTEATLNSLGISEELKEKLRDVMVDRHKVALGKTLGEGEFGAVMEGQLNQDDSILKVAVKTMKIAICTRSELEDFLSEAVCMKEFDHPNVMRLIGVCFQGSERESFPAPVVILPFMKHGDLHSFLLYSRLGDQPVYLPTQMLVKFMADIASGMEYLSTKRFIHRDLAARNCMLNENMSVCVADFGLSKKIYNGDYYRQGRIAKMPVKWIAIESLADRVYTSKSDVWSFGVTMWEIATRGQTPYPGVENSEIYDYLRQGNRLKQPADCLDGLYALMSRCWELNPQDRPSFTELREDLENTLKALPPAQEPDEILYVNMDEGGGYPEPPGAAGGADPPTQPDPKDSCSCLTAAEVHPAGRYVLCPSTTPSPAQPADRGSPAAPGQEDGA

KIT N822K = KIT N822K (Homo sapiens, UniProt P10721, N822K)
RET G691S = RET G691S (Homo sapiens, UniProt P07949, G691S)
Sequence of RET G691S (P07949 whole entry G691S): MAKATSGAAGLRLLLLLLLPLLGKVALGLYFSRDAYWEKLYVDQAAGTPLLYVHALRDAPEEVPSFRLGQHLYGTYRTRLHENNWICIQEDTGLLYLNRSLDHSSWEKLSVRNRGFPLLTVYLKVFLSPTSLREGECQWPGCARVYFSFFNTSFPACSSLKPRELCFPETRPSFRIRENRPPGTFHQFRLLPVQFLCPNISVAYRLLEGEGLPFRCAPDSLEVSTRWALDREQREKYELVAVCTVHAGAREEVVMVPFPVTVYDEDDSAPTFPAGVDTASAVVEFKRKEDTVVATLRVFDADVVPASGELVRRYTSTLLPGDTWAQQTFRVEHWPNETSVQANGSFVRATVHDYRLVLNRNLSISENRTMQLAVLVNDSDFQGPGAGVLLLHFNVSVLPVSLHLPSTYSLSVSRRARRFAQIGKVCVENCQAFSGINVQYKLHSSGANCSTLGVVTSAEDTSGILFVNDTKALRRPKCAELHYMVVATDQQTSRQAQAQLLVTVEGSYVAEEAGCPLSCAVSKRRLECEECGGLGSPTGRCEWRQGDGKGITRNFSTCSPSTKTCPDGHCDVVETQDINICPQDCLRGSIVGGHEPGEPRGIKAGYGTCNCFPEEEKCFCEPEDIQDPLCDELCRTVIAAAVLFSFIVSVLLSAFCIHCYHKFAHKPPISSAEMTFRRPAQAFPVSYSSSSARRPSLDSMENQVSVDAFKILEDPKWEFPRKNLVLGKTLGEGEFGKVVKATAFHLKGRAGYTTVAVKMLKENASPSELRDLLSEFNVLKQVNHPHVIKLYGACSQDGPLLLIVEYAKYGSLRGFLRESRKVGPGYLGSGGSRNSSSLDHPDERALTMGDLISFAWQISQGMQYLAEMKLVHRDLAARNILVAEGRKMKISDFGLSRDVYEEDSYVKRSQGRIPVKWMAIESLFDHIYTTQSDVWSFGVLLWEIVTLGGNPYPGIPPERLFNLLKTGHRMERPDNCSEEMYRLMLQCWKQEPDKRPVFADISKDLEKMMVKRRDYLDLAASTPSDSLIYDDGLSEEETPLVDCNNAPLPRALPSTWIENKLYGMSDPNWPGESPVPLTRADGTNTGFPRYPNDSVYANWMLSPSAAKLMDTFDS

MAPK9 (JNK2) = MAPK9 (JNK2) (Homo sapiens, UniProt P45984)
MAP3K11 (MLK3) = MAP3K11 (MLK3) (Homo sapiens, UniProt Q16584)
LIMK2 = LIMK2 (Homo sapiens, UniProt P53671)
KIT V559D T670I = KIT V559D T670I (Homo sapiens, UniProt P10721, T670I/V559D)
ZAK = ZAK (Homo sapiens, UniProt Q9NYL2)
BMPR2 = BMPR2 (Homo sapiens, UniProt Q13873)
CASK = CASK (Homo sapiens, UniProt O14936)
NUAK2 = NUAK2 (Homo sapiens, UniProt Q9H093)
ALK F1174L = ALK F1174L (Homo sapiens, UniProt Q9UM73, F1174L)
ANKK1 = ANKK1 (Homo sapiens, UniProt Q8NFD2)
Sequence of ANKK1 (Q8NFD2 whole entry): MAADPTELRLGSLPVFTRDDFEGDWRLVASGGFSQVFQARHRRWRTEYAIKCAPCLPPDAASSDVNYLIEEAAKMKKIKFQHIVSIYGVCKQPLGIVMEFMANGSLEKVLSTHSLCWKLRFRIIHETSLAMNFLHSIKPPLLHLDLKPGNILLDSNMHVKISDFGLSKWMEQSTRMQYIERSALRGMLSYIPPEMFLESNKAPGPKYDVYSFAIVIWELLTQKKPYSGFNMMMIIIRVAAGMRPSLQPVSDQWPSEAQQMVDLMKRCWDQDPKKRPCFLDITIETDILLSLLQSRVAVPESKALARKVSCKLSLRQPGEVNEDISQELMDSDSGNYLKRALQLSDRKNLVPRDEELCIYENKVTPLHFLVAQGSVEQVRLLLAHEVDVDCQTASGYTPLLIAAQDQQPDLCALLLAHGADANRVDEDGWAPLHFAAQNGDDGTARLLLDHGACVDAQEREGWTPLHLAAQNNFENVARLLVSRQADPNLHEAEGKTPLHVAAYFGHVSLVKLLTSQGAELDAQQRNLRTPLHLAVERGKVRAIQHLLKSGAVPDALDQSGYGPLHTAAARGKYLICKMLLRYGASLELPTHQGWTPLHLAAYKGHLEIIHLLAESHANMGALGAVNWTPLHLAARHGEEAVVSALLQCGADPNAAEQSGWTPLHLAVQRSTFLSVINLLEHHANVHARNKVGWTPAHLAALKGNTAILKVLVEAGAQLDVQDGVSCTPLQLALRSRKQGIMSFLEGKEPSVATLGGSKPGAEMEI

EPHA6 = EPHA6 (Homo sapiens, UniProt Q9UF33)
RET M918T = RET M918T (Homo sapiens, UniProt P07949, M918T)
Sequence of RET M918T (P07949 whole entry M918T): as the sequence (P07949 whole entry G691S) above, with S691G, M918T counted along it

EPHA7 = EPHA7 (Homo sapiens, UniProt Q15375)
MAP3K5 (ASK1) = MAP3K5 (ASK1) (Homo sapiens, UniProt Q99683)
MYO3B (MYO3 beta) = MYO3B (MYO3 beta) (Homo sapiens, UniProt Q8WXR4)
Sequence of MYO3B (MYO3 beta) (Q8WXR4 whole entry): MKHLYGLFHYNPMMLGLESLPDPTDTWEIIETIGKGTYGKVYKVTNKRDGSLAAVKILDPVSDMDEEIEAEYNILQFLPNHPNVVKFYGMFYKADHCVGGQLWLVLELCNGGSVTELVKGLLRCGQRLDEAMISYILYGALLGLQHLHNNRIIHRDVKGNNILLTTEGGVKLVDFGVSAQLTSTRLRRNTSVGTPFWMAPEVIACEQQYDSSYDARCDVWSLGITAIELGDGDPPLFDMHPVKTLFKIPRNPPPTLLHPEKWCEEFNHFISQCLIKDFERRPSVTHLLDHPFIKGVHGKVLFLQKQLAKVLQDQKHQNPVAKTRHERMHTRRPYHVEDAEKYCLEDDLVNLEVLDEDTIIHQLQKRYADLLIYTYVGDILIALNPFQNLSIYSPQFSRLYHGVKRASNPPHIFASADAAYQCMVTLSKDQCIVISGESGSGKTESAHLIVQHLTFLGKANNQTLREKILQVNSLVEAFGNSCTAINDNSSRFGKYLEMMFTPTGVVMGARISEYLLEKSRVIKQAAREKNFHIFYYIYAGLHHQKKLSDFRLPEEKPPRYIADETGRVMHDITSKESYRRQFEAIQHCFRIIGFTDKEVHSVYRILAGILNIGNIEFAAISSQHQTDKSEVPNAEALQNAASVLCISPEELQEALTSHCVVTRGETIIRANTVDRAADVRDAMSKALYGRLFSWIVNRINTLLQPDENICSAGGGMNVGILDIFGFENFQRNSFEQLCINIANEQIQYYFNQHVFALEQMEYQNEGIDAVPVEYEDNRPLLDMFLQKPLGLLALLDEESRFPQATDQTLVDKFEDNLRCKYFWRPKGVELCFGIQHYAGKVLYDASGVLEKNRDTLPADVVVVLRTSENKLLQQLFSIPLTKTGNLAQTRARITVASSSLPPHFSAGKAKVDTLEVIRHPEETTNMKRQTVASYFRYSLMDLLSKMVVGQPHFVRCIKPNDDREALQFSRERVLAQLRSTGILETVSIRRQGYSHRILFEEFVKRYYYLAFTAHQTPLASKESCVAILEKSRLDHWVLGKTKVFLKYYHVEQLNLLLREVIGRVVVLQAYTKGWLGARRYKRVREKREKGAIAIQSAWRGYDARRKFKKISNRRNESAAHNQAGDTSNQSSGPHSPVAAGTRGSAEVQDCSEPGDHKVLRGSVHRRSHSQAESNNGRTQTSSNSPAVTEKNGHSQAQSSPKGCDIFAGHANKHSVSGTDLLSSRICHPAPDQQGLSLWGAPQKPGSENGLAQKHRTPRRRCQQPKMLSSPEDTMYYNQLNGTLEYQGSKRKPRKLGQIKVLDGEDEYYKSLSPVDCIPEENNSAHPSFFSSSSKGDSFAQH

ERN1 = ERN1 (Homo sapiens, UniProt O75460)
CDK5 (Inactive) = CDK5 (Inactive) (Homo sapiens, UniProt Q00535)

COc1ccc2nc3cc(Cl)ccc3c(Nc3cc(CN4CCCC4)c(O)c(CN4CCCC4)c3)c2n1 [Pyronaridine, 4-[(7-Chloro-2-methoxybenzo[b][1,5]naphthyridin-10-yl)amino]-2,6-bis(1-pyrrolidinylmethyl)phenol phosphate (1:4)]
inhibition at 1 µM (MAP4K1 (HPK1)): 1% | inhibition at 1 µM (TNIK): -1% | inhibition at 1 µM (MYLK4): -9% | inhibition at 1 µM (SIK1): 2% | inhibition at 1 µM (RIPK2): 1% | inhibition at 1 µM (KIT D816V): -3% | inhibition at 1 µM (NLK): 8% | inhibition at 1 µM (STK17B (DRAK2)): -4% | inhibition at 1 µM (TAOK3 (JIK)): -2% | inhibition at 1 µM (AXL R499C): 3% | inhibition at 1 µM (KIT N822K): 14% | inhibition at 1 µM (RET G691S): -3% | inhibition at 1 µM (MAPK9 (JNK2)): 6% | inhibition at 1 µM (MAP3K11 (MLK3)): 2% | inhibition at 1 µM (LIMK2): -1% | inhibition at 1 µM (KIT V559D T670I): -10% | inhibition at 1 µM (ZAK): 0% | inhibition at 1 µM (BMPR2): 8% | inhibition at 1 µM (CASK): 2% | inhibition at 1 µM (NUAK2): 2% | inhibition at 1 µM (ALK F1174L): 8% | inhibition at 1 µM (ANKK1): -2% | inhibition at 1 µM (EPHA6): -3% | inhibition at 1 µM (RET M918T): -3% | inhibition at 1 µM (EPHA7): -3% | inhibition at 1 µM (MAP3K5 (ASK1)): -11% | inhibition at 1 µM (MYO3B (MYO3 beta)): 5% | inhibition at 1 µM (ERN1): 6% | inhibition at 1 µM (CDK5 (Inactive)): -1%
